What all share (format): cell-based, herpes simplex virus type-1
Assay [1] has as its system HSV-1(K26GFP). Kind of assay: HSV-1(K26GFP) replication in human CF (GFP fluorescence over time). Conditions: 0-36 h post-infection (FIG. 6D). The method, then: (§1) GFP-expressing HSV-1(K26GFP) intensity as a surrogate for virus binding was quantified in presence G2 or control peptide (abbreviated as C) by flow cytometry (FIG. 6C). The cell/virus incubation was performed as described above. G2 peptides block HSV-1 replication into cultured human corneal fibroblasts (CF) (FIG. 6D). Cultured CF were pre-incubated with G2 or mock-treated (Cp) before infection with HSV-1(K26GFP) virus for 6 h. Viral replications in CF were quantified 0-36 h post-infection by measuring GFP fluorescent intensity using a fluorescence reader (Tecan). The data shown are the means of triplicate measures and are representative of three independent experiments. Asterisks indicate significant difference from other treatments (P<0.01, t test), error bars represent standard deviation (SD).
To further confirm that blocking of viral attachment results in a reduction of viral replication, GFP fluorescence was measured as a function of time (K26GFP) (Desai and Person J. Virol. 72:7563-7568 (1998)) in both G2- and mock-treated cells.

Assay [2] concerns HSV-1 glycoproteins (gB, gD, gH-gL) induced membrane fusion. Kind of assay: HSV-1 glycoprotein induced cell-to-cell fusion assay, 3-OST-3-expressing CHO-K1 target cells. The text has this:
CHO-K1 “effector” cells (grown in F-12 Ham, Invitrogen) were co-transfected with plasmids expressing four HSV-1(KOS) glycoproteins: pPEP98 (gB), pPEP99 (gD), pPEP100 (gH), and pPEP101 (gL), along with the plasmid pT7EMCLuc that expresses firefly luciferase gene under transcriptional control of the T7 promoter. Pertel et al., Virology 279:313-324 (2001). Wild-type CHO-K1 cells, which express cell-surface HS but lack functional gD receptors, were transiently transfected with HSV-1 entry receptors. Wild-type CHO-K1 cultured cells expressing HSV-1 entry receptors or naturally susceptible cells (human CF) considered as “target cells” were co-transfected with pCAGT7 that expresses T7 RNA polymerase using chicken actin promoter and CMV enhancer. Tiwari et al., FEBS Letters 581:4468-4472 (2007). Untreated effector cells expressing pT7EMCLuc and HSV-1 essential glycoproteins, and target cells expressing gD receptors transfected with T7 RNA polymerase, were used as positive controls. […]
Control effector cells (T7 polymerase and gD, gH-gL only) (−) were also pre-incubated with G2 for the same duration. […] Membrane fusion as a surrogate for viral spread was detected by monitoring luciferase activity (FIGS. 7A and 7C). Relative luciferase units (RLUs) were determined using a Sirius luminometer (Berthold detection systems). […]

Assay [3] concerns HSV-1(K26GFP). Kind of assay: HSV-1(K26GFP) binding to human CF (microscopy, fluorescence reader, flow cytometry). Conditions: for virus binding by flow cytometry: 60 min pre-treatment, 4° C. (FIG. 6C). Here is the method:
Flow cytometry was performed to detect the effect of G2 peptide on GFP-HSV-1 binding to human CF. Monolayers of approximately 5×10^6 CF were pre-treated with G2 peptide for 60 min followed by incubation with GFP-expressing HSV-1 (K26GFP) at 4° C. A control peptide treated and untreated cells were similarly incubated with HSV-1 GFP virions. Uninfected CF were used as background negative control. GFP expression from the viral capsid on cell surface was examined by a flowcytometer (MoFlo).
Cultured CF were pre-incubated with 0.5 mM G2 peptide or control-peptide (cp) and then infected with a GFP-tagged HSV-1(K26GFP) virus. Cells were fixed at 60 min post-infection and stained for F-actin and the nucleus (DAPI). GFP-expressing HSV-1(K26GFP) binding to CF in presence and absence of G2 peptides was examined by fluorescence microscopy (FIG. 6A). CF were grown in collagen coated chamber slides and incubated at room temperature for 60 min with G2 (+) or control Cp (G2 (−)) peptide. This was followed by the incubation of the cells in cold with GFP-expressing HSV-1(K26GFP) for 30 min and washing of unbound virioins with PBS. Cells were fixed, stained with phalloidin for F-actin and DAPI for nuclei and examined by a fluorescence microscope (Leica, SP2). The presence of the virus was shown by detecting GFP.
To examine this effect on a population of 10^5 cells, GFP intensity as an indicator of virus binding, was measured after incubation with the virus in cold and rigorous washing of the cells afterwards (FIG. 6B). Relative virus binding to CF was estimated by fluorescence measurements. Cultured CF were pre-incubated with G2 and control peptide (Cp) for 60-min before ice-cold incubation with GFP-expressing HSV-1 virus for 30 min. Cells were washed 3 times and viruses remaining on cell surfaces were assayed for GFP fluorescent intensity using a fluorescence reader (Tecan).
as §1
Primary cultures of human CF pretreated with G2 peptide or control peptide (C) were analyzed for HSV-1(K26GFP) binding. […]

Data on two sequences can be found in patent US9464113B2, “Anti-heparan sulfate peptides that block herpes simplex virus infection in vivo” (The Board of Trustees of the University of Illinois, priority 2010, dated 2016).

No end group written: not given here.

For MPRRRRIRRRQK [G2, MPRRRRIRRRQK], the “viral replication (GFP intensity over time)” value in the assay on HSV-1(K26GFP) [1] is “substantial reduction of viral replication”. Besides, in assay [2] (3-OST-3-expressing CHO-K1 cells (FIG. 7C)), the “blocking of membrane fusion (luciferase activity)” value is “very effective in blocking membrane fusion”. For the same sequence, the “syncytia (polykaryocyte) formation, Giemsa staining” value in assay [2] (3-OST-3-expressing CHO-K1 cells (FIG. 7D)) is recorded as “loss of syncytia formation”. Further, the “virus attachment (fluorescence microscopy)” value in the assay on HSV-1(K26GFP) [3] (0.5 mM, 60 min, virus in cold 30 min (FIG. 6A)) was “resisted virus attachment”. For the same sequence, the “virus binding by flow cytometry” value in the assay on HSV-1(K26GFP) [3] was “virus failed to bind”. For the same sequence, the “relative virus binding (GFP fluorescent intensity)” value in the assay on HSV-1(K26GFP) [3] (fluorescence reader (FIG. 6B)) is “binding was significantly higher in Cp-treated compared to G2 peptide treated cells”.

Take RVCGSIGKEVLG [Cp, reference compound]: the “virus binding by flow cytometry” value in the assay on HSV-1(K26GFP) [3] is recorded as “low level inhibitory activity”.
